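Growth conditions: 96-well plates. Treatment: test compound, 48 hours, 5 concentrations. Analysis: linear interpolation between bracketing concentrations; unreached endpoints set to highest concentration. GI50 marks 50% less growth. At the TGI there is no net growth.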
How the values were obtained:
Experiment in all cases: NCI tumour cell line growth inhibition, 48 h
UACC-62 melanoma = test system: UACC-62 melanoma
SF-539 CNS = test system: SF-539 CNS
LOX IMVI melanoma = test system: LOX IMVI melanoma
HS 578T breast = test system: HS 578T breast
MALME-3M melanoma = test system: MALME-3M melanoma
NCI-H23 lung = test system: NCI-H23 lung
NCI-H226 lung = test system: NCI-H226 lung
RXF 393 renal = test system: RXF 393 renal
T-47D breast = test system: T-47D breast
NCI-H522 lung = test system: NCI-H522 lung
OVCAR-8 ovarian = test system: OVCAR-8 ovarian
MDA-MB-231 breast = test system: MDA-MB-231 breast
SF-295 CNS = test system: SF-295 CNS
SK-MEL-2 melanoma = test system: SK-MEL-2 melanoma
A549 NSCLC = test system: A549 NSCLC
HCC-2998 colon = test system: HCC-2998 colon
786-0 renal = test system: 786-0 renal
EKVX NSCLC = test system: EKVX NSCLC
SF-268 CNS = test system: SF-268 CNS
SK-MEL-5 melanoma = test system: SK-MEL-5 melanoma
COLO 205 colon = test system: COLO 205 colon
IGROV1 ovarian = test system: IGROV1 ovarian
A498 renal = test system: A498 renal
CCRF-CEM leukemia = test system: CCRF-CEM leukemia
K-562 leukemia = test system: K-562 leukemia
TK-10 renal = test system: TK-10 renal
KM12 colon = test system: KM12 colon
NCI-H460 lung = test system: NCI-H460 lung
OVCAR-5 ovarian = test system: OVCAR-5 ovarian
ACHN renal = test system: ACHN renal
RPMI-8226 leukemia = test system: RPMI-8226 leukemia
HOP-62 NSCLC = test system: HOP-62 NSCLC
CAKI-1 renal = test system: CAKI-1 renal
HT29 colon = test system: HT29 colon
PC-3 prostate = test system: PC-3 prostate
SNB-75 CNS = test system: SNB-75 CNS
OVCAR-4 ovarian = test system: OVCAR-4 ovarian
SK-OV-3 ovarian = test system: SK-OV-3 ovarian
NCI/ADR-RES ovarian = test system: NCI/ADR-RES ovarian
SNB-19 CNS = test system: SNB-19 CNS
MCF7 breast = test system: MCF7 breast
SN12C renal = test system: SN12C renal
HCT-15 colon = test system: HCT-15 colon
SK-MEL-28 melanoma = test system: SK-MEL-28 melanoma
UACC-257 melanoma = test system: UACC-257 melanoma
SW-620 colon = test system: SW-620 colon
M14 melanoma = test system: M14 melanoma
DU-145 prostate = test system: DU-145 prostate
U251 CNS = test system: U251 CNS
MDA-MB-435 = test system: MDA-MB-435
SR leukemia = test system: SR leukemia
BT-549 breast = test system: BT-549 breast
MOLT-4 leukemia = test system: MOLT-4 leukemia
UO-31 renal = test system: UO-31 renal
HOP-92 NSCLC = test system: HOP-92 NSCLC
HCT-116 colon = test system: HCT-116 colon

O=c1c2cc(-c3ccc(F)cc3F)ccc2n(Nc2ccccc2)c(=O)n1-c1cccc(C(F)(F)F)c1
GI50 (UACC-62 melanoma): 337 nM
TGI (UACC-62 melanoma): 1410 nM
GI50 (SF-539 CNS): 1570 nM
TGI (SF-539 CNS): 5.64 µM
GI50 (LOX IMVI melanoma): 1530 nM
TGI (LOX IMVI melanoma): 3.12 µM
GI50 (HS 578T breast): 1060 nM
TGI (HS 578T breast): 4.2 µM
GI50 (MALME-3M melanoma): 1500 nM
TGI (MALME-3M melanoma): 5.05 µM
GI50 (NCI-H23 lung): 1060 nM
TGI (NCI-H23 lung): 4.32 µM
GI50 (NCI-H226 lung): 1320 nM
TGI (NCI-H226 lung): 3.42 µM
GI50 (RXF 393 renal): 1200 nM
TGI (RXF 393 renal): 2840 nM
GI50 (T-47D breast): 1400 nM
TGI (T-47D breast): 5.37 µM
GI50 (NCI-H522 lung): 440 nM
TGI (NCI-H522 lung): 2410 nM
GI50 (OVCAR-8 ovarian): 1230 nM
TGI (OVCAR-8 ovarian): 3.72 µM
GI50 (MDA-MB-231 breast): 1780 nM
TGI (MDA-MB-231 breast): 5.62 µM
GI50 (SF-295 CNS): 1830 nM
TGI (SF-295 CNS): 3.82 µM
GI50 (SK-MEL-2 melanoma): 532 nM
TGI (SK-MEL-2 melanoma): 2100 nM
GI50 (A549 NSCLC): 2960 nM
TGI (A549 NSCLC): 12.7 µM
GI50 (HCC-2998 colon): 2550 nM
TGI (HCC-2998 colon): 6.84 µM
GI50 (786-0 renal): 1860 nM
TGI (786-0 renal): 3.83 µM
GI50 (EKVX NSCLC): 2350 nM
TGI (EKVX NSCLC): 7.91 µM
GI50 (SF-268 CNS): 1700 nM
TGI (SF-268 CNS): 7.98 µM
GI50 (SK-MEL-5 melanoma): 354 nM
TGI (SK-MEL-5 melanoma): 1350 nM
GI50 (COLO 205 colon): 1800 nM
TGI (COLO 205 colon): 3.27 µM
GI50 (IGROV1 ovarian): 1910 nM
TGI (IGROV1 ovarian): 13.3 µM
GI50 (A498 renal): 358 nM
TGI (A498 renal): 1250 nM
GI50 (CCRF-CEM leukemia): 1970 nM
TGI (CCRF-CEM leukemia): 9.76 µM
GI50 (K-562 leukemia): 717 nM
TGI (K-562 leukemia): > 100 µM
GI50 (TK-10 renal): 3.98 µM
TGI (TK-10 renal): 8.5 µM
GI50 (KM12 colon): 2170 nM
TGI (KM12 colon): 5.66 µM
GI50 (NCI-H460 lung): 775 nM
TGI (NCI-H460 lung): 4.39 µM
GI50 (OVCAR-5 ovarian): 3.15 µM
TGI (OVCAR-5 ovarian): 56.3 µM
GI50 (ACHN renal): 1810 nM
TGI (ACHN renal): 5.31 µM
GI50 (RPMI-8226 leukemia): 460 nM
TGI (RPMI-8226 leukemia): 2570 nM
GI50 (HOP-62 NSCLC): 1800 nM
TGI (HOP-62 NSCLC): 4.11 µM
GI50 (CAKI-1 renal): 1510 nM
TGI (CAKI-1 renal): 4.37 µM
GI50 (HT29 colon): 2840 nM
TGI (HT29 colon): 7.74 µM
GI50 (PC-3 prostate): 1350 nM
TGI (PC-3 prostate): 5.19 µM
GI50 (SNB-75 CNS): 1400 nM
TGI (SNB-75 CNS): 4.86 µM
GI50 (OVCAR-4 ovarian): 2670 nM
TGI (OVCAR-4 ovarian): > 100 µM
GI50 (SK-OV-3 ovarian): 1270 nM
TGI (SK-OV-3 ovarian): 3.01 µM
GI50 (NCI/ADR-RES ovarian): 1910 nM
TGI (NCI/ADR-RES ovarian): 7.74 µM
GI50 (SNB-19 CNS): 931 nM
TGI (SNB-19 CNS): > 100 µM
GI50 (MCF7 breast): 1810 nM
TGI (MCF7 breast): 7.44 µM
GI50 (SN12C renal): 1000 nM
TGI (SN12C renal): 5.01 µM
GI50 (HCT-15 colon): 812 nM
TGI (HCT-15 colon): 2550 nM
GI50 (SK-MEL-28 melanoma): 1280 nM
TGI (SK-MEL-28 melanoma): 4.69 µM
GI50 (UACC-257 melanoma): 963 nM
TGI (UACC-257 melanoma): 3.82 µM
GI50 (SW-620 colon): 1510 nM
TGI (SW-620 colon): 3.55 µM
GI50 (M14 melanoma): 1650 nM
TGI (M14 melanoma): 4.17 µM
GI50 (DU-145 prostate): 2560 nM
TGI (DU-145 prostate): 61.7 µM
GI50 (U251 CNS): 1740 nM
TGI (U251 CNS): 10.3 µM
GI50 (MDA-MB-435): 1520 nM
TGI (MDA-MB-435): 5.04 µM
GI50 (SR leukemia): 1110 nM
TGI (SR leukemia): 4.53 µM
GI50 (BT-549 breast): 1120 nM
TGI (BT-549 breast): 2530 nM
GI50 (MOLT-4 leukemia): 1790 nM
TGI (MOLT-4 leukemia): 5.66 µM
GI50 (UO-31 renal): 1980 nM
TGI (UO-31 renal): 5.96 µM
GI50 (HOP-92 NSCLC): 190 nM
TGI (HOP-92 NSCLC): 679 nM
GI50 (HCT-116 colon): 1030 nM
TGI (HCT-116 colon): 2340 nM
